Columns and labels:
[1] = test system: U2OS; assay: (§1) Here: values are normalized to the negative (DMSO; defined as 0% autophagy induction) and positive (250nM Torin1; mTOR inhibitor; defined as maximal inducer of autophagy = 100%) control compounds and represented as % of autophagy induction. […] The impact of autophagy induction on cells is complex and depends on the affected target. As such, the magnitude of a phenotype may not be equally mirrored in the %-value of autophagy induction and vice versa. The dynamics of the induction may indicate the mode of activation: e.g. activation via phosphorylation or a signaling cascade may occur fast, while activation via transcription factors may take considerably longer. […] Of note, treatment concentrations may be sub-optimal for specific compounds, leading to false negative annotations.; assay type: functional, Homo sapiens; settings: Culturing Media DMEM, 1 % Penicillin/Streptomycin, 10% Fetal bovin serum Add-On: No, Screening Media Control DMEM, Screening Media Samples DMEM
[2] = test system: U2OS; assay: as §1; assay type: functional, Homo sapiens; settings: Culturing Media DMEM, 1 % Penicillin/Streptomycin, 10% Fetal bovin serum Add-On: No, Screening Media Control DMEM, Screening Media Samples DMEM; remark: listed apart in the source
[3] = Compound Concentration 0.5 uM, Timepoint 12 hours
[4] = Compound Concentration 0.5 uM, Timepoint 24 hours
[5] = Compound Concentration 0.5 uM, Timepoint 36 hours
[6] = Compound Concentration 0.5 uM, Timepoint 60 hours
[7] = Compound Concentration 2 uM, Timepoint 12 hours
[8] = Compound Concentration 2 uM, Timepoint 24 hours
[9] = Compound Concentration 2 uM, Timepoint 36 hours
[10] = Compound Concentration 2 uM, Timepoint 60 hours
[11] = Compound Concentration 10 uM, Timepoint 12 hours
[12] = Compound Concentration 10 uM, Timepoint 24 hours
[13] = Compound Concentration 10 uM, Timepoint 36 hours
[14] = Compound Concentration 10 uM, Timepoint 60 hours

Compound | autophagy induction [1, 3] [%] | autophagy induction [1, 4] [%] | autophagy induction [1, 5] [%] | autophagy induction [1, 6] [%] | autophagy induction [1, 7] [%] | autophagy induction [1, 8] [%] | autophagy induction [1, 9] [%] | autophagy induction [1, 10] [%] | autophagy induction [1, 11] [%] | autophagy induction [1, 12] [%] | autophagy induction [1, 13] [%] | autophagy induction [1, 14] [%] | autophagy induction [2, 3] [%] | autophagy induction [2, 4] [%] | autophagy induction [2, 5] [%] | autophagy induction [2, 6] [%] | autophagy induction [2, 7] [%] | autophagy induction [2, 8] [%] | autophagy induction [2, 9] [%] | autophagy induction [2, 10] [%] | also measured
N#Cc1ccc(NC(=O)Nc2ccccc2Br)c2nn[nH]c12 | -0.5776 | -3.216 | -2.984 | 114.391 | 0.1454 | -3.5634 | -1.494 | 114.288 | -0.261 | -3.379 | -2.529 | 114.424 | 5.86 | 3.694 | 2.244 | 1.525 | -10.6319 | -11.2857 | -14.4856 | -10.0033 | autophagy induction [2, 11]: -0.1618%; autophagy induction [2, 12]: -2.733%; autophagy induction [2, 13]: -3.711%; autophagy induction [2, 14]: -9.797%
CCc1ccc(OCc2ccccc2C(=O)Nc2ccc3nc(C)cc(N)c3c2)cc1.Cl | 12.0081 | 1.625 | -0.1664 | 114.695 | -46.9081 | -13.0517 | 3.022 | 113.026 | 98.6173 | 63.101 | 54.8449 | 109.07 | 21.0143 | 14.8244 | 13.2935 | 10.1945 | 66.4638 | 63.0279 | 63.192 | 56.3816 | autophagy induction [2, 11]: 203.914%; autophagy induction [2, 12]: 166.946%; autophagy induction [2, 13]: 154.332%; autophagy induction [2, 14]: 150.102%
Cc1c(OCc2cccc(-c3ccc(C(=O)O)cc3)c2)cc2c(c1C)C(=O)C(C1CCCC1)C2 (stereo unspecified) | -1.105 | -3.325 | -3.23 | 114.413 | 3.182 | -1.283 | -1.767 | 114.283 | 2.021 | -2.128 | 0.06533 | 114.104 | 16.7916 | 7.662 | 9.473 | -0.5665 | 6.511 | 6.165 | 2.879 | -1.177 | autophagy induction [2, 11]: 6.9%; autophagy induction [2, 12]: 7.1725%; autophagy induction [2, 13]: 8.617%; autophagy induction [2, 14]: 11.2815%
CCCCCNC(=O)NS(=O)(=O)c1cc([N+](=O)[O-])ccc1NC1CCCCC1 | -2.4637 | -2.287 | -1.179 | 114.19 | -2.891 | -2.398 | -2.2883 | 114.254 | -6.232 | -4.153 | -3.872 | 114.439 | 1.311 | 2.21 | -1.399 | -21.9841 | 12.2747 | 3.055 | 0.8075 | -5.198 | autophagy induction [2, 11]: 0.1217%; autophagy induction [2, 12]: -4.73%; autophagy induction [2, 13]: -6.08%; autophagy induction [2, 14]: -12.7619%
